Experimental findings from article PMC10528385 (Antiviral research, 2023) are described below.

The assay has as its target NA of A/Washington/01/2007 A(H3N2), WT (Influenza A virus, UniProt A7UPN3). In words: biochemical.

`CC(=O)N[C@H]1[C@H]([C@H](O)[C@H](O)CO)OC(C(=O)O)=C[C@@H]1N=C(N)N` [Zanamivir, zanamivir] displayed an IC50 of 1.1 ± 0.1 nM.
